The values below come from patent US7608626B2, “Substituted indolizines and derivatives as CNS agents” (Wyeth, priority 2004, dated 2009).

What is called melting point is the temperature of the solid-liquid transition. By Ki is commonly meant a measure of affinity in units of concentration, obtained from inhibition or displacement. Usually Emax stands for the greatest response seen or fitted, relative to the assay's reference. For orientation: EC50 means the midpoint of the concentration-response curve.

Counter-ions that a name gives are not always drawn. Like-named read-outs stand apart in the source and are kept apart here.

Data set [1] has as its target T1, human 5-hydroxytryptamine-2C (h-5-HT2C) receptor (Homo sapiens, UniProt P28335).
T1 construct: expressed in transfected cells; host or cells: Chinese Hamster Ovary (CHO) cells; membrane preparation
T1 sequence (P28335 33-458): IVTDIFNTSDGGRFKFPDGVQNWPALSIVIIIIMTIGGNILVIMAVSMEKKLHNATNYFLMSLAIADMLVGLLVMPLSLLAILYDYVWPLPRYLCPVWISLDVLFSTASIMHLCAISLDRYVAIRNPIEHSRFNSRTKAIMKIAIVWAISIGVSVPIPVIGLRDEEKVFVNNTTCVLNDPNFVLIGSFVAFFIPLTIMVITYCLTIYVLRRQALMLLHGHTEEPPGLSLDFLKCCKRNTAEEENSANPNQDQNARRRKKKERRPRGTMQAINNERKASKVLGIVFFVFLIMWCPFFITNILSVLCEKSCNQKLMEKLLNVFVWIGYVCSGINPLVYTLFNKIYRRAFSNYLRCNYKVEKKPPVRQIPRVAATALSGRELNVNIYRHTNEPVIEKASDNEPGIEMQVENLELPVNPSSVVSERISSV
The data set can be described thus: [125I]DOI binding to membranes of CHO cells expressing h-5-HT2C receptor.

Data set [2] addresses T2, human 5-HT2C receptor (Homo sapiens, UniProt P28335).
T2 construct: expressed in transfected cells
T2 sequence (P28335 33-458): T1 sequence (P28335 33-458)
The data set can be described thus: 5-HT2C receptor-stimulated calcium mobilization (FLIPR) in CHO cells. Type of data set: cell-based. As to conditions: for Emax: CHO, read-out: 5-HT2C Function Emax (%); for EC50: calcium mobilization, CHO cells, read-out: 5-HT2C Function EC50.

Turning to `CCc1c(-c2ccccc2)c(CCN)c2ccccn12` (as salt: fumaric acid salt) [Example 2, 2-(3-ethyl-2-phenylindolizin-1-yl)ethylamine], the melting point was 173 to 176 °C.
On the same count and under the same terms, for `CCCc1c(-c2ccccc2)c(CCN)c2ccccn12` (as salt: fumaric acid salt) [Example 3, 2-(2-phenyl-3-propylindolizin-1-yl)ethylamine] the value was 169 to 172 °C.
On the same count and under the same terms, then `CCc1cn2ccccc2c1CCN` (as salt: fumaric acid salt) [Example 4, 2-(2-ethylindolizin-1-yl)ethylamine], with 170 to 175 °C (dec.); and `CCc1c(CCN)c2ccccn2c1CC` (as salt: fumaric acid salt) [Example 5, 2-(2,3-diethylindolizin-1-yl)ethylamine], with 166 to 171 °C; and `CCNCCc1c(CC)c(CC)n2ccccc12` (as salt: fumaric acid salt) [Example 6, N-[2-(2,3-diethylindolizin-1-yl)ethyl]-N-ethylamine], with 154 to 158 °C.
Still for that read-out and setting: then `CCCc1c(CC)c(CCN)c2ccccn12` (as salt: fumaric acid salt) [Example 7, 2-(2-ethyl-3-propylindolizin-1-yl)ethylamine], with 154 to 158 °C; and `CCCc1c(CC)c(CC(C)N)c2ccccn12` (stereo not drawn) (as salt: fumaric acid salt) [Example 9, 2-(2-ethyl-3-propylindolizin-1-yl)-1-methylethylamine], with 184 to 186 °C.
Compound `CCCc1c(C)c(CC(C)N)c2ccccn12` (stereo not drawn) (as salt: fumaric acid salt) [Example 10, 1-(2-methyl-3-propylindolizin-1-yl)propan-2-amine] returned a melting point of 147 to 150 °C.
For `NCCc1c(-c2ccccc2)cn2ccccc12` [Example 1, 2-(2-phenylindolizin-1-yl)ethylamine], in data set [1] (read-out: 5-HT2C Affinity Ki), the Ki stood at 272 nM.
The same measure, in the same setting: then `CCc1c(-c2ccccc2)c(CCN)c2ccccn12` [Example 2, 2-(3-ethyl-2-phenylindolizin-1-yl)ethylamine], with 117 nM; and `CCCc1c(-c2ccccc2)c(CCN)c2ccccn12` [Example 3, 2-(2-phenyl-3-propylindolizin-1-yl)ethylamine], with 54 nM.
Turning to `CCc1cn2ccccc2c1CCN` [Example 4, 2-(2-ethylindolizin-1-yl)ethylamine], affinity in data set [1] was put at a Ki of 121 nM.
Consider `CCc1c(CCN)c2ccccn2c1CC` [Example 5, 2-(2,3-diethylindolizin-1-yl)ethylamine], for which the affinity in data set [1], expressed as Ki, was 35 nM. Further, in data set [2], the Emax came to 80% and the EC50 is 11 nM.
On to `CCNCCc1c(CC)c(CC)n2ccccc12` [Example 6, N-[2-(2,3-diethylindolizin-1-yl)ethyl]-N-ethylamine], for which, in data set [1] (read-out: 5-HT2C Affinity Ki), the Ki was determined as 228 nM.
Take `CCCc1c(CC)c(CCN)c2ccccn12` [Example 7, 2-(2-ethyl-3-propylindolizin-1-yl)ethylamine]: the Ki in data set [1] amounted to 21 nM. Moreover, in data set [2], the Emax stood at 100% and the EC50 came out at 19 nM.
As for `CCCNCCc1c(CC)c(CCC)n2ccccc12` [Example 8], in data set [1] (read-out: 5-HT2C Affinity Ki), the inhibitory constant (Ki) is 208 nM.
Take `CCCc1c(CC)c(CC(C)N)c2ccccn12` (stereo not drawn) [Example 9, 2-(2-ethyl-3-propylindolizin-1-yl)-1-methylethylamine]: in data set [1] (read-out: 5-HT2C Affinity Ki), the Ki stood at 124 nM.
Turning to `CCCc1c(C)c(CC(C)N)c2ccccn12` (stereo not drawn) [Example 10, 1-(2-methyl-3-propylindolizin-1-yl)propan-2-amine], the Ki in data set [1] was found to be 17 nM. Further, in data set [2], the Emax was 90% and the EC50 is 46 nM.
With `CCCc1c(C)c(CC(N)CC)c2ccccn12` (stereo not drawn) [Example 11, 1-(2-methyl-3-propylindolizin-1-yl)butan-2-amine], the Ki in data set [1] (read-out: 5-HT2C Affinity Ki) was 457 nM.
Take `NCCc1c2c(n3ccccc13)CCCC2` [Example 12, 2-(1,2,3,4-tetrahydropyrido[1,2-a]indol-10-yl)ethylamine]: in data set [1], the Ki came to 98 nM.
As to `CSc1ccc2c(c1)C(N1CCN(C)CC1)Cc1ccccc1S2` (stereo not drawn) [Methiothepin, reference compound], in data set [1] (reference compounds, [125I]DOI radioligand, CHO cell membranes, read-out: Ki (95% confidence interval)), the Ki stood at 4.6 nM.
